{
  "source": "patent US20230116113A1",
  "about": "“USE OF COMPOUNDS THAT ARE ABLE TO CROSS-LINK THE EXTRACELLULAR MATRIX FOR PREVENTING OR INHIBITING THE MIGRATION OF CANCER CELLS” (CAMBRIDGE ENTERPRISE LIMITED, priority 2020, published 2023)",
  "key": {"U87 cells": {"system": "U87 cells", "conditions": "different trientine concentrations in phosphate-buffered saline", "experimental": "FIG. 6: A. Optical images showing the effect of crosslinking 3D model brain ECM ionically with 5, 10 and 20 mM trientine on the migration of glioblastoma U87 cells from tumour spheroids compared to controls with no trientine crosslinking. […] B. Quantification of the extent of cancer cell migration in the 3D model brain ECM with addition of different trientine concentrations. C."}, "U87 GBM cells [1]": {"system": "U87 GBM cells", "assay": "Migration and proliferation of cells from U87 tumour spheroids in 3D hyaluronic acid-serum model brain ECM", "format": "cell-based", "conditions": "5, 10 and 20 mM trientine mixed into 2 wt % HA-serum model ECM; days 1, 3, 6, 10", "text": "We first established a 3D extracellular matrix (ECM) model for brain consisting of hyaluronic acid mixed with serum proteins to support GBM cell metabolism. We then used tumour spheroids, cultured from U87 GBM cell line cells, as 3D tumour models that we implanted into the hyaluronic acid-serum model brain ECM.\nWe fabricated hyaluronic acid-serum model brain ECMs containing 2 wt %, 3.5 wt % and 5 wt % hyaluronic acid to represent low, normal and high hyaluronic acid concentrations/levels of molecular entanglement with respect to brain extracellular matrix. The low hyaluronic acid concentration model ECMs can be expected to mimic an in vivo situation where there is substantial hyaluronic acid degradation and the high hyaluronic acid concentration was set to exceed the average hyaluronic acid concentration in brain ECM by 50%.\nThe different concentrations of hyaluronic acid-serum for model ECMs were prepared by mixing hyaluronic acid with MEM complete media and foetal calf serum. […]\n(§1) Migration of cells from the spheroids, cell viability and the vertical position of the spheroid in the well were recorded on days 4, 7 and 16 using bright field, epifluorescence or confocal microscopy, before the samples were returned to the incubator to continue the experiment."}, "U87 GBM cells [2]": {"system": "U87 GBM cells", "quoted_text": "Calcein AM (acetoxymethyl), a non-fluorescent ester derivative of the fluorescent calcein dye, was used to determine the viability and integrity of spheroids. Spheroids were soaked in 1 uM calcein-AM in live cell imaging buffer for 45 minutes in a humidified 5% CO2 incubator. After incubation, the calcein-AM solution was removed, spheroids were washed three times with PBS and transferred with 50 μl of media to the top of hyaluronic acid-serum gels in chamber slide wells prepared as above. In controls, spheroids were placed into the wells with 300 μl of MEM complete supplemented medium.\nas §1"}, "[3]": {"system": "K7M2 mouse osteosarcoma cell line", "assay": "Invasion of K7M2 osteosarcoma tumour spheroids into 3D 1.5 mg/ml collagen-medium model ECM", "format": "cell-based", "conditions": "monitored for 14 days", "experimental": "Bone extracellular matrix consists primarily of calcified collagen type I. Calcification is invariably disrupted around metastasizing osteosarcoma tumours, allowing tumour cells to migrate through the extracellular matrix. Thus, we chose to model the bone/osteosarcoma extracellular matrix with a 3D 1.5 mg/ml collagen gel. This concentration of collagen gel promoted invasion by the K7M2 mouse osteosarcoma cell line (FIG. 9).\nCollagen gels (1.5 mg/ml) in DMEM complete medium as model bone extracellular matrix was prepared from a stock 5 wt % collagen gel (IBIDI, Germany). K7M2 cells were cultured in DMEM complete medium supplemented with 10% foetal calf serum, antibiotics, and pyruvate. The cultures were maintained in T-75 cm^2 culture flasks and incubated at 37° C. and 5% CO2 in a humidified incubator. At 70% confluence, cells were detached from the surface of the flasks after incubating for 2 min at room temperature with 4 ml of trypsin-EDTA. The cell suspension was then centrifuged at 1400 rpm for 5 min at room temperature to pellet the cells. […]\nCell invasion was monitored for 14 days (FIG. 10). […]"}, "[4]": {"conditions": "cited from earlier work"}},
  "note": "Entries after “also recorded” stand apart in the source; their conditions may differ.",
  "data": [
    {"smiles": "NCCNCCNCCN", "note": "[trientine]", "values": [
      {"measurement": "toxicity to U87 cells (live/dead cell analysis)", "setting": "U87 cells", "value": "non-toxic to U87 cells"},
      {"measurement": "cell migration from U87 tumour spheroids", "setting": "U87 GBM cells [1]", "value": "inhibited in a trientine-concentration dependent manner; also recorded: clearly inhibited"}
    ]},
    {"smiles": "Cc1cc2nc3c(=O)[nH]c(=O)nc-3n(C[C@H](O)[C@H](O)[C@H](O)CO)c2cc1C", "note": "[riboflavin]", "values": [
      {"measurement": "cell metabolic activity (calcein-AM staining)", "setting": "U87 GBM cells [2]", "value": "remained metabolically active"}
    ]},
    {"smiles": "COC(=O)C1=CO[C@@H](O)[C@@H]2C(CO)=CC[C@H]12", "note": "[genipin]", "values": [
      {"measurement": "cell invasion of model collagen extracellular matrix", "setting": "[3]; 0.05 wt % genipin in 1.5 mg/ml collagen gel", "value": "only minimal invasion"},
      {"measurement": "cell invasion of model collagen extracellular matrix", "setting": "[3]; 0.3 wt % genipin in 1.5 mg/ml collagen gel", "value": "no observable cell invasion"},
      {"measurement": "acute toxicity", "setting": "[4]; literature statement", "value": "low acute toxicity"},
      {"measurement": "LD50", "setting": "[4]; mouse, in vivo, iv", "value": 153, "unit": "mg/kg"}
    ]}
  ]
}
